This note sets out measurements from publication PMC9960487, “A novel Menin-MLL1 inhibitor, DS-1594a, prevents the progression of acute leukemia with rearranged MLL1 or mutated NPM1” (Cancer Cell International, 2023).

This assay concerns the target T1, hERG channel (Homo sapiens, UniProt Q12809).
T1 construct: gene KCNH2
The assay is described as follows: inhibition of hERG channel current (data not shown). In kind it is cell-based. For orientation: The hERG channel carries a current that helps repolarise heart muscle cells.

T1 sequence (Q12809 whole entry): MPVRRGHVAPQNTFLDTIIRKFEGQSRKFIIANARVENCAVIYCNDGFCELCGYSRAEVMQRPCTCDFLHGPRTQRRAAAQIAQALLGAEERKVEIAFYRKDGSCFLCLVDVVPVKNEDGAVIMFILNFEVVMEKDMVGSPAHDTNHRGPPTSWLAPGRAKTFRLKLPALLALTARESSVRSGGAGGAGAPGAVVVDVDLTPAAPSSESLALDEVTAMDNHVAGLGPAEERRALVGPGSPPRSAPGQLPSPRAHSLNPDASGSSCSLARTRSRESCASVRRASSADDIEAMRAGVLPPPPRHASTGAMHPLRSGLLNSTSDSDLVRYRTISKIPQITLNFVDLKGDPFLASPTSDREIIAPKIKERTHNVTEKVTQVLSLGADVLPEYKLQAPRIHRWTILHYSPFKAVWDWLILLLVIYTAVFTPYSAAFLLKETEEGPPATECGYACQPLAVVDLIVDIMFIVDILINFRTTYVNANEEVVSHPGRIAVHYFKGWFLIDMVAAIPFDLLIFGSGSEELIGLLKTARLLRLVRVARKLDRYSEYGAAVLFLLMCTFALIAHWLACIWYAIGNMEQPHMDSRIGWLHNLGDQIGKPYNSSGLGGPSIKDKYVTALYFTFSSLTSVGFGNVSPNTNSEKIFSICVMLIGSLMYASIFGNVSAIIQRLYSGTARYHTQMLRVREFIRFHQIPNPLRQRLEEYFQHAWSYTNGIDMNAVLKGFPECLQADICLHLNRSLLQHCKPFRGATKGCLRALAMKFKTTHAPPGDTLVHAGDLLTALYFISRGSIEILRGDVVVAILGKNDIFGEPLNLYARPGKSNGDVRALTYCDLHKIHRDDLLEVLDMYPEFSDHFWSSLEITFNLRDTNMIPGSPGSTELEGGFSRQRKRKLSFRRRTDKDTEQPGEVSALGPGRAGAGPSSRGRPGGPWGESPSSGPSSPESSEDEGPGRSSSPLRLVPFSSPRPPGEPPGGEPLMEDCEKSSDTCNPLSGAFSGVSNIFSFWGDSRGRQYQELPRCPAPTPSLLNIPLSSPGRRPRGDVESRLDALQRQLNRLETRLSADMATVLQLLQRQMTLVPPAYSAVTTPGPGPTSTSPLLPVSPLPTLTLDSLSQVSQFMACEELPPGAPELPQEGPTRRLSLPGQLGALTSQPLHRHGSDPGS

For the compound `COc1cc(-c2ccc(CN[C@H]3C[C@@H](O)[C@@H](N(C)c4ncnc5sc(CC(F)(F)F)cc45)C3)cc2)nnc1OC` [DS-1594a, (1R, 2S, 4R)-4-({[4-(5,6-dimethoxypyridazin-3-yl)phenyl]methyl}amino)-2-{methyl[6-(2,2,2-trifluoroethyl)thieno[2,3-d]pyrimidin-4-yl]amino}cyclopentan-1-ol], half-maximal inhibition (IC50) required 0.3 µM.
